These results are taken from patent US20230357233A1, “HETEROARYL COMPOUNDS, PREPARATION METHODS AND USES THEREOF” (INVENTISBIO CO., LTD., priority 2020, published 2023).

Experiment [1] addresses recombinant human KRAS^G12D protein (Homo sapiens, UniProt P01116, G12D). Nature of the experiment: Temperature-dependent Fluorescence (TdF) KRAS^G12D protein binding assay. The note with it: 6 μM KRAS^G12D Protein, 10 μM compound, Sypro Orange; Kd calculated from fluorescent shift. The essentials:
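Sypro Orange thermal-shift assay, heating from 30 to 95 °C with readings every 0.4 °C (ex 470/em 570 nm). Binding is gauged as ΔTm with versus without compound. Kd is calculated from the degree of the unfolding-temperature shift.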

In the next experiment the target is Ba/F3_KRAS^G12D cells (Homo sapiens, UniProt P01116, G12D, cells depend on it). Nature of the experiment: Ba/F3 KRAS^G12D cell proliferation assay (cell-titer Glo). It is filed as cell-based. The following applies: cell growth inhibition, treated with the compounds for 3 days, read-out: BaF3_KRAS^G12D IC50.
Ba/F3_KRAS^G12D cells, sequence (P01116 whole entry G12D): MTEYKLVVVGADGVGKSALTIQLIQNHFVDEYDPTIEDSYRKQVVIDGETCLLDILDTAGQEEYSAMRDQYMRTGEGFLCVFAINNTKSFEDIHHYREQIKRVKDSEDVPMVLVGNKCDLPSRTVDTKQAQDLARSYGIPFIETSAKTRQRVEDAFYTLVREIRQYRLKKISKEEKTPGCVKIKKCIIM

recombinant human KRAS^G12D protein, sequence (P01116 1-188 isoform P01116-2 G12D): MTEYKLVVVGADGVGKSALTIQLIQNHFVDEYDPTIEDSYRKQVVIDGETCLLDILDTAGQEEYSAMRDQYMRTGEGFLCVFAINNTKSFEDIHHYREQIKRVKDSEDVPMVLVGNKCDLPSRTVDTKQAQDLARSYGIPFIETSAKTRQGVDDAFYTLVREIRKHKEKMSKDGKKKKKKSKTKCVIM

As to `CN1CCC[C@H]1Cn1c(=O)nc(N2CCNCC2)c2cc(F)c(-c3cccc4cccc(Cl)c34)nc21` [Compound 38], in experiment [1], the Kd (usually the equilibrium constant for the complex coming apart) is above 5000 nM. At Ba/F3_KRAS^G12D cells, the GI50 was above 5000 nM.
Take `CCc1c(F)ccc2cc(O)cc(-c3nc(Cl)c4c(N5CC6CCC(C5)N6)nc(OC[C@@]56CCCN5C[C@H](F)C6)nc4c3F)c12` [Compound 138]: the Kd in experiment [1] was at most 500 nM. The GI50 on Ba/F3_KRAS^G12D cells was below 500 nM.
The corresponding values for `CN(C)C1CN(c2nc(-c3cccc4cccc(Cl)c34)c(F)c3nc(N4CCNCC4)ccc23)C1` [Compound 50] are above 5000 nM and 500 to 5000 nM.
On the same counts, the results for `C#Cc1c(F)ccc2cc(O)cc(-c3nc(C)c4c(N5CC6CCC(C5)N6)nc(OC[C@@]56CCCN5C[C@H](F)C6)nc4c3F)c12` [Compound 128] are at most 500 nM and below 500 nM.
As for `Clc1cccc2cccc(-c3ncc4c(N5CCNCC5)nc(OCC56CCCN5CCC6)cc4n3)c12` [Compound 48], the Kd in experiment [1] is above 5000 nM. Moreover, the GI50 on Ba/F3_KRAS^G12D cells fell in the range of 500 to 5000 nM.
On the same counts, the results for `Oc1cc(-c2nc(Cl)c3c(N4CC5CCC(C4)N5)nc(OC[C@@]45CCCN4C[C@H](F)C5)nc3c2F)c2ccccc2c1` [Compound 95] are at most 500 nM and below 500 nM.
On the same counts, the results for `O=c1cc2c(N3CC4CCC(C3)N4)nc(OCC34CCCN3CCC4)nc2cn1-c1cccc2ccccc12` [Compound 110] are above 5000 nM and 500 to 5000 nM.
Regarding `Fc1cc2c(N3CCNCC3)nc(OCC34CCCN3CCC4)nc2nc1-c1cccc2cccc(Cl)c12` [Compound 5], in experiment [1], the Kd is above 5000 nM. In addition, the GI50 at Ba/F3_KRAS^G12D cells is above 5000 nM.
Turning to `Fc1ccc2cccc(-c3ncc4c(N5CC6CCC(C5)N6)nc(OC[C@@]56CCCN5C[C@H](F)C6)nc4c3F)c2c1Cl` [Compound 76], the Kd in experiment [1] was at most 500 nM. Further, the GI50 on Ba/F3_KRAS^G12D cells is below 500 nM.
Consider `C#Cc1c(F)ccc2cc(O)cc(-c3nc(Cl)c4c(N5CC6CCC(C5)N6)nc(OC[C@@H]5CCCN5C)nc4c3F)c12` [Compound 159], for which the Kd in experiment [1] was at most 500 nM. Further, the GI50 on Ba/F3_KRAS^G12D cells is below 500 nM.
Take `Oc1cc(-c2ncc3c(N4CC5(CCCN5)C4)nc(OC[C@@]45CCCN4C[C@H](F)C5)nc3c2F)c2c(Cl)cccc2c1` [Compound 97]: the Kd in experiment [1] is above 5000 nM. In addition, the GI50 on Ba/F3_KRAS^G12D cells is above 5000 nM.
`COc1cc(-c2cc3nc(OC[C@@H]4CCCN4C)nc(N4CC5CCC(C4)N5)c3nc2OC)c2ccccc2c1` [Compound 86]: the Kd in experiment [1] is above 5000 nM. Besides, the GI50 on Ba/F3_KRAS^G12D cells lay in the range of 500 to 5000 nM.
On the same counts, the results for `NC(=O)N1CCN(c2nc(OC[C@@]34CCCN3C[C@H](F)C4)nc3c(F)c(-c4cc(O)cc5cccc(Cl)c45)ncc23)CC1` [Compound 77] are above 5000 nM and above 5000 nM.
The corresponding values for `N#Cc1cc2c(N3CC4CCC(C3)N4)nc(OC[C@@]34CCCN3C[C@H](F)C4)nc2nc1-c1cc(O)cc2ccccc12` [Compound 60] are above 5000 nM and above 5000 nM.
Consider `CN1CCC[C@H]1COc1nc(N2CC3CCC(C2)N3)c2cc(F)c(-c3cccc4cccc(Cl)c34)nc2n1` [Compound 8], for which the Kd in experiment [1] was above 5000 nM. For the same compound, the GI50 at Ba/F3_KRAS^G12D cells lay within 500 to 5000 nM.
Take `Cc1nc(-c2cc(O)cc3cccc(C(F)(F)F)c23)c(F)c2nc(OC[C@@]34CCCN3C[C@H](F)C4)nc(N3CC4CCC(C3)N4)c12` [Compound 106]: the Kd in experiment [1] was at most 500 nM. The GI50 at Ba/F3_KRAS^G12D cells was below 500 nM.
On the same counts, the results for `Oc1cc(-c2ncc3c(N4CC5CCC(C4)N5)nc(OCC45CCCN4CCC5)nc3c2F)c2c(Cl)cccc2c1` [Compound 32] are at most 500 nM and below 500 nM.
On the same counts, the results for `O=c1cc2c(N3CC4CCC(C3)N4)nc(OCC34CCCN3CCC4)nc2cn1-c1cc(O)cc2cccc(Cl)c12` [Compound 111] are above 5000 nM and above 5000 nM.
The corresponding values for `Cc1nc(-c2cccc3cccc(CCC#N)c23)c(F)c2nc(OC[C@@]34CCCN3C[C@H](F)C4)nc(N3CC4CCC(C3)N4)c12` [Compound 123] are above 5000 nM and 500 to 5000 nM.
As for `Cc1nc(-c2cc(O)cc3cccc(CCC#N)c23)c(F)c2nc(OC[C@@]34CCCN3C[C@H](F)C4)nc(N3CC4CCC(C3)N4)c12` [Compound 119], in experiment [1], the Kd was 500 to 5000 nM. Also, at Ba/F3_KRAS^G12D cells, the GI50 was above 5000 nM.
Take `Clc1cc2c(N3CC4CCC(C3)N4)nc(OCC34CCCN3CCC4)nc2nc1-c1cccc2ccccc12` [Compound 2]: the Kd in experiment [1] was above 5000 nM. Further, at Ba/F3_KRAS^G12D cells, the GI50 was above 5000 nM.
With `Cc1nc(-c2cc(O)cc3cccc(Cl)c23)c(Cl)c2nc(OC[C@@]34CCCN3C[C@H](F)C4)nc(N3CC4CCC(C3)N4)c12` [Compound 130], the Kd in experiment [1] is at most 500 nM. The GI50 at Ba/F3_KRAS^G12D cells is below 500 nM.
On the same counts, the results for `CCc1cccc2cc(O)cc(-c3nc(O)c4c(N5CC6CCC(C5)N6)nc(OC[C@@]56CCCN5C[C@H](F)C6)nc4c3F)c12` [Compound 133] are at most 500 nM and 500 to 5000 nM.
On the same counts, the results for `Fc1c(-c2cccc3cccc(Cl)c23)ncc2c(N3CC4CCC(C3)N4)nc(OC[C@@]34CCCN3C[C@H](F)C4)nc12` [Compound 30] are at most 500 nM and below 500 nM.
The corresponding values for `CCc1cccc2cc(O)cc(-c3nc(CC)c4c(N5CC6CCC(C5)N6)nc(OC[C@@]56CCCN5C[C@H](F)C6)nc4c3F)c12` [Compound 118] are at most 500 nM and below 500 nM.
For `C#Cc1c(F)ccc2cc(O)cc(-c3nc(OCC)c4c(N5CC6CCC(C5)N6)nc(OC[C@@]56CCCN5C[C@H](F)C6)nc4c3F)c12` [Compound 141], the Kd in experiment [1] is at most 500 nM. Besides, the GI50 at Ba/F3_KRAS^G12D cells is below 500 nM.
The corresponding values for `Cc1nc(-c2cc(O)cc3ccccc23)c(F)c2nc(OC[C@@]34CCCN3C[C@H](F)C4)nc(N3CC4CCC(C3)N4)c12` [Compound 81] are at most 500 nM and below 500 nM.
With `CCN1CCN(c2nc(OCC34CCCN3CCC4)nc3c(F)c(-c4cc(O)cc5cccc(Cl)c45)ncc23)CC1` [Compound 42], the Kd in experiment [1] was above 5000 nM. In addition, at Ba/F3_KRAS^G12D cells, the GI50 is 500 to 5000 nM.
As for `Oc1cc(-c2ncc3c(N4CC5CCC(C4)N5)cc(OC[C@@]45CCCN4C[C@H](F)C5)nc3c2F)c2c(Cl)cccc2c1` [Compound 78], the Kd in experiment [1] is at most 500 nM. Further, the GI50 on Ba/F3_KRAS^G12D cells fell in the range of 500 to 5000 nM.
The corresponding values for `Nc1cccc(F)c1-c1nc2cc(OCC34CCCN3CCC4)nc(N3CC4CCC(C3)N4)c2cc1Cl` [Compound 37] are above 5000 nM and above 5000 nM.
The corresponding values for `CC1(O)CN2CCC[C@@]2(COc2nc(N3CC4CCC(C3)N4)c3cnc(-c4cc(O)cc5cccc(Cl)c45)c(F)c3n2)C1` (stereo partly drawn) [Compound 96] are at most 500 nM and above 5000 nM.
`CCc1cccc2cc(O)cc(-c3nc(C)c4c(N5CC6CCC(C5)N6)nc(OC[C@@]56CCCN5C[C@H](F)C6)nc4c3F)c12` [Compound 85]: the Kd in experiment [1] is at most 500 nM. Besides, the GI50 at Ba/F3_KRAS^G12D cells is below 500 nM.
The corresponding values for `CCc1c(F)ccc2cc(O)cc(-c3nc(C)c4c(N5CC6CCC(C5)N6)nc(OC[C@@]56CCCN5C[C@H](F)C6)nc4c3F)c12` [Compound 137] are at most 500 nM and below 500 nM.
On the same counts, the results for `CN(C)CCOc1nc(N2C3CCC2CNC3)c2cc(F)c(-c3ccccc3F)nc2c1-c1cccnc1C1CC1` [Compound 20] are above 5000 nM and 500 to 5000 nM.
On the same counts, the results for `CCc1cccc2cc(O)cc(-c3cc4nc(OC[C@@]56CCCN5C[C@H](F)C6)nc(N5CC6CCC(C5)N6)c4c(C)n3)c12` [Compound 121] are at most 500 nM and 500 to 5000 nM.
With `Oc1cc(-c2ncc3c(N4CC5CCC(C4)N5)nc(OCC45CCCN4CCC5)nc3c2F)c2ccccc2c1` [Compound 12], the Kd in experiment [1] is at most 500 nM. Besides, the GI50 on Ba/F3_KRAS^G12D cells lay in the range of 500 to 5000 nM.
For the compound `Oc1cc(-c2ncc3c(N4CC5CCC(C4)N5)nc(OCC45CCCN4CCC5)cc3n2)c2c(Cl)cccc2c1` [Compound 51], the Kd in experiment [1] was above 5000 nM. Further, the GI50 on Ba/F3_KRAS^G12D cells is above 5000 nM.
`CN(C)CCOc1nc(N2CC3CCC(C2)N3)c2cc(F)c(-c3ccccc3F)nc2c1-c1cccnc1C1CC1` [Compound 27]: in experiment [1], the dissociation constant (Kd) is above 5000 nM. Moreover, the GI50 at Ba/F3_KRAS^G12D cells was 500 to 5000 nM.
On the same counts, the results for `C[C@H]1CNCCN1c1nc(OCCN(C)C)cc2nc(-c3ccccc3F)c(F)cc12` [Compound 13] are above 5000 nM and 500 to 5000 nM.
In the case of `Oc1cc(-c2cc3nc(N4CC5CCC(C4)N5)ccc3c(OC[C@@]34CCCN3C[C@H](F)C4)n2)c2ccccc2c1` [Compound 104], the Kd in experiment [1] was above 5000 nM. On Ba/F3_KRAS^G12D cells, the GI50 is above 5000 nM.
`C#Cc1c(F)ccc2cc(O)cc(-c3nc(OC(C)C)c4c(N5CC6CCC(C5)N6)nc(OC[C@@]56CCCN5C[C@H](F)C6)nc4c3F)c12` [Compound 171]: the Kd in experiment [1] was at most 500 nM. Further, on Ba/F3_KRAS^G12D cells, the GI50 is below 500 nM.
Take `Oc1cc(-c2ncc3c(N4CC5CCC(C4)N5)cc(OC[C@@]45CCCN4C[C@H](F)C5)nc3c2F)c2ccccc2c1` [Compound 80]: the Kd in experiment [1] is 500 to 5000 nM. Further, the GI50 at Ba/F3_KRAS^G12D cells was in the range of 500 to 5000 nM.
